Measurements from the supplement of paper PMC13380429.

Tests used:
Details in all cases: 72 h
Calu-3 [1] = assay: cell viability relative to DMSO; higher = less toxic
U2OS [2] = assay: as above
HepG2 [3] = assay: as above
Caco-2 [4] = assay: as above
Calu-3 [5] = assay: drug sensitivity score (DSS) for viability; higher = more toxic; extreme values may be limits of the assay
U2OS [6] = assay: as above
HepG2 [7] = assay: as above
Caco-2 [8] = assay: as above
Calu-3 [9] = assay: relative viability EC50 (midpoint between 100% and the lowest measured viability); higher = less toxic
U2OS [10] = assay: as above
HepG2 [11] = assay: as above
Caco-2 [12] = assay: as above
Vero E6 [13] = assay: cell viability relative to DMSO; higher = less toxic
Vero E6 [14] = assay: drug sensitivity score (DSS) for viability; higher = more toxic; extreme values may be limits of the assay
Vero E6 [15] = assay: relative viability EC50 (midpoint between 100% and the lowest measured viability); higher = less toxic

SMILES | cell viability (Calu-3 [1]; 1 nM) [%] | cell viability (Calu-3 [1]; 10 nM) [%] | cell viability (Calu-3 [1]; 100 nM) [%] | cell viability (Calu-3 [1]; 1000 nM) [%] | cell viability (Calu-3 [1]; 10000 nM) [%] | cell viability (U2OS [2]; 1 nM) [%] | cell viability (U2OS [2]; 10 nM) [%] | cell viability (U2OS [2]; 100 nM) [%] | cell viability (U2OS [2]; 1000 nM) [%] | cell viability (U2OS [2]; 10000 nM) [%] | cell viability (HepG2 [3]; 1 nM) [%] | cell viability (HepG2 [3]; 10 nM) [%] | cell viability (HepG2 [3]; 100 nM) [%] | cell viability (HepG2 [3]; 1000 nM) [%] | cell viability (HepG2 [3]; 10000 nM) [%] | cell viability (Caco-2 [4]; 1 nM) [%] | cell viability (Caco-2 [4]; 10 nM) [%] | cell viability (Caco-2 [4]; 100 nM) [%] | cell viability (Caco-2 [4]; 1000 nM) [%] | cell viability (Caco-2 [4]; 10000 nM) [%] | drug sensitivity score (Calu-3 [5]) | drug sensitivity score (U2OS [6]) | drug sensitivity score (HepG2 [7]) | drug sensitivity score (Caco-2 [8]) | relative viability EC50 (Calu-3 [9]) [µM] | relative viability EC50 (U2OS [10]) [µM] | relative viability EC50 (HepG2 [11]) [µM] | relative viability EC50 (Caco-2 [12]) [µM] | cell viability (Vero E6 [13]; 1 nM) [%] | cell viability (Vero E6 [13]; 10 nM) [%] | cell viability (Vero E6 [13]; 100 nM) [%] | cell viability (Vero E6 [13]; 1000 nM) [%] | cell viability (Vero E6 [13]; 10000 nM) [%] | drug sensitivity score (Vero E6 [14]) | relative viability EC50 (Vero E6 [15]) [µM]
O=C(Cc1ccccc1)Nc1nc2ccc(Cl)cc2c2nc(-c3ccco3)nn12 [MRS-1220] | 104 | 98.2 | 95.3 | 94.1 | 93.5 | 98.8 | 101 | 97.2 | 104 | 96.9 | 96.5 | 93 | 93.5 | 95.6 | 105 | 93.7 | 100 | 99.4 | 94.1 | 101 | 0 | 0 | 0 | 0 | > 10 | > 10 | > 10 | > 10 |  |  |  |  |  |  | 
Cc1c(C(=O)N2CCOc3ccc(-c4ccc(N)nc4)cc3C2)ccc(S(C)(=O)=O)c1F [XL388] | 102 | 104 | 103 | 68.5 | 33.7 | 102 | 101 | 102 | 98.3 | 50.2 | 110 | 115 | 99.5 | 92.5 | 39 | 115 | 105 | 103 | 77.8 | 43 | 7.7 | 2.8 | 4.6 | 6.1 | 1.04 |  | 2.16 | 1.2 | 110 | 108 | 103 | 95.6 | 66.7 | 2.3 | 
Cc1cc(C)c(S(=O)(=O)Nc2cccc(C(F)(F)F)c2)c(C)c1 [m-3M3FBS] | 94.5 | 102 | 95.8 | 98.9 | 99.4 | 101 | 97 | 100 | 103 | 100 | 101 | 98.9 | 93 | 88.8 | 90.6 | 111 | 98.8 | 108 | 98.2 | 106 | 0 | 0 | 0.4 | 0 | > 10 | > 10 | > 10 | > 10 |  |  |  |  |  |  | 
C[C@@H](NC(=O)c1ncnc(N)c1Cl)c1ncc(C(=O)Nc2cc(C(F)(F)F)c(Cl)cn2)s1 [MLN2480] |  |  |  |  |  | 102 | 101 | 103 | 102 | 95.4 | 102 | 102 | 101 | 91.9 | 57 | 101 | 96.4 | 103 | 103 | 91.5 |  | 0 | 3.5 | 0 |  | > 10 |  | > 10 | 95.4 | 104 | 111 | 108 | 108 | 0 | > 10
CC(C[N+](C)(C)C)OC(N)=O (centres undefined) [bethanechol] |  |  |  |  |  | 100 | 98.8 | 98.3 | 95.5 | 95.7 | 97.1 | 104 | 92.1 | 106 | 106 | 121 | 111 | 118 | 97.4 | 104 |  | 0 | 0 | 0 |  | > 10 | > 10 | > 10 | 99.3 | 91.8 | 103 | 86.8 | 98.2 | 0 | > 10
NCc1ccc(S(N)(=O)=O)cc1 [mafenide] | 100 | 103 | 98.1 | 94.5 | 96.1 |  |  |  |  |  | 94.1 | 102 | 99.9 | 101 | 95.7 | 106 | 98.5 | 97.7 | 103 | 98.1 | 0 |  | 0 | 0 | > 10 |  | > 10 | > 10 |  |  |  |  |  |  | 
OCc1ccc(-c2ccc(-c3ccc(CO)s3)o2)s1 [RITA] | 102 | 101 | 90.6 | 103 | 106 | 95 | 96.3 | 102 | 101 | 32.4 | 107 | 110 | 88.3 | 92.4 | 4.6 | 99.2 | 103 | 100 | 89.4 | 77.8 | 0 | 3.6 | 6.5 | 1.9 | > 10 | 3.25 | 2.51 | > 10 | 101 | 103 | 103 | 102 | 68 | 1.3 | 
NS(=O)(=O)Nc1ncnc(OCCOc2ncc(Br)cn2)c1-c1ccc(Br)cc1 | 88.4 | 99.1 | 95.6 | 104 | 94.7 | 97.8 | 94.5 | 96.9 | 102 | 105 | 102 | 104 | 98.9 | 92.9 | 90.9 | 106 | 94.3 | 102 | 93.8 | 97 | 0 | 0 | 0 | 0 | > 10 | > 10 | > 10 | > 10 |  |  |  |  |  |  | 
CC(=O)Nc1ccc(C(=O)Nc2ccccc2N)cc1 [tacedinaline] | 101 | 99.8 | 97.1 | 74.5 | 42.3 | 99 | 103 | 95.1 | 90.7 | 43.1 | 104 | 85.5 | 98 | 74.4 | 40.8 | 97.3 | 95.2 | 93.4 | 99.9 | 52.7 | 6.1 | 4.6 | 6.3 | 2.5 | 1.14 | 1.91 | 1.15 |  | 99 | 104 | 97.9 | 92.8 | 54.7 | 3.5 | 
O=S(=O)(c1cccc2cnccc12)N1CCNCC1 [C-1] | 98.2 | 91.8 | 96.3 | 99.5 | 123 |  |  |  |  |  | 93.2 | 105 | 95 | 110 | 104 | 96.8 | 94.8 | 105 | 99.4 | 104 | 0 |  | 0 | 0 | > 10 |  | > 10 | > 10 |  |  |  |  |  |  | 
O=C(Nc1ccccc1)N1CCC(Cc2cnc3ccccc3c2)CC1 [PF-750] | 89.9 | 88.1 | 114 | 95.7 | 95.9 | 97.2 | 92 | 96.8 | 96.5 | 97.9 | 96.6 | 108 | 103 | 98.1 | 93 | 106 | 99.4 | 94.5 | 102 | 88.3 | 0 | 0 | 0 | 0 | > 10 | > 10 | > 10 | > 10 |  |  |  |  |  |  | 
NS(=O)(=O)c1ccc(C(=O)O)cc1 [carzenide] | 106 | 101 | 93.4 | 100 | 94.2 |  |  |  |  |  | 97.6 | 99.8 | 102 | 102 | 94.9 | 106 | 96.1 | 112 | 106 | 96.9 | 0 |  | 0 | 0 | > 10 |  | > 10 | > 10 |  |  |  |  |  |  | 
NCCCCN(Cc1nc2ccccc2[nH]1)[C@H]1CCCc2cccnc21 | 98.9 | 93.1 | 96.2 | 90.4 | 89.8 | 106 | 100 | 97.3 | 96.6 | 98.3 | 100 | 104 | 97.6 | 105 | 82.8 | 100 | 93.3 | 97.1 | 97.2 | 104 | 0 | 0 | 0.2 | 0 | > 10 | > 10 | > 10 | > 10 |  |  |  |  |  |  | 
Cc1onc(-c2ccccc2Cl)c1C(=O)N[C@@H]1C(=O)N2[C@@H]1SC(C)(C)[C@@H]2C(=O)O [cloxacillin] |  |  |  |  |  |  |  |  |  |  | 107 | 116 | 104 | 90.8 | 109 | 102 | 99.7 | 98.5 | 109 | 95.8 |  |  | 0 | 0 |  |  | > 10 | > 10 | 94.5 | 97.6 | 99.7 | 98.2 | 106 | 0 | > 10
NC(=O)Nc1cc(-c2cccc(F)c2)sc1C(=O)N[C@H]1CCCNC1 [AZD7762] | 106 | 96.4 | 94.8 | 43.4 | 7 | 101 | 95.9 | 97.3 | 6.1 | 0.1 | 97.8 | 101 | 103 | 37.8 | 1.3 | 96.3 | 91.5 | 102 | 82.6 | 25 | 12 | 17.4 | 12.7 | 6.9 | 0.736 | 0.352 | 0.809 | 1.61 | 92 | 99.1 | 90.7 | 84.6 | 52.4 | 4.1 | 
Cc1ncc([N+](=O)[O-])n1CC(O)CN1CCOCC1 (centres undefined) [morinidazole] |  |  |  |  |  | 101 | 95.1 | 106 | 104 | 101 | 96.3 | 108 | 94.2 | 96.6 | 102 | 103 | 92 | 100 | 109 | 102 |  | 0 | 0 | 0 |  | > 10 | > 10 | > 10 | 99.7 | 97.1 | 96.3 | 96.7 | 101 | 0 | > 10
Clc1ccc(-c2nc3sccn3c2/C=N/OCc2ccc(Cl)c(Cl)c2)cc1 [CITCO] | 92.2 | 88.4 | 93.1 | 93.6 | 92.1 | 96.3 | 98.7 | 99.5 | 97.6 | 94 | 97 | 104 | 104 | 104 | 97.9 | 107 | 98.5 | 110 | 94 | 96.5 | 0 | 0 | 0 | 0 | > 10 | > 10 | > 10 | > 10 |  |  |  |  |  |  | 
